In PubChem BioAssay (NCI):
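Where inhibition never reached the appropriate level, the endpoint shown equals the highest concentration tested. Otherwise, values were interpolated linearly from a five-concentration, 48-hour dose response in 96-well plates. The concentration for full growth arrest is given as TGI.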

Assays:
Experiment in all cases: DTP human tumour cell line panel, 48 h
SF-295 CNS = system: SF-295 CNS
DU-145 prostate = system: DU-145 prostate
SK-MEL-5 melanoma = system: SK-MEL-5 melanoma
A549 NSCLC = system: A549 NSCLC
NCI-H460 lung = system: NCI-H460 lung
PC-3 prostate = system: PC-3 prostate
SF-268 CNS = system: SF-268 CNS
OVCAR-3 ovarian = system: OVCAR-3 ovarian
RXF 393 renal = system: RXF 393 renal
SK-MEL-2 melanoma = system: SK-MEL-2 melanoma

Compound	TGI (SF-295 CNS) [µM]	TGI (DU-145 prostate) [µM]	TGI (SK-MEL-5 melanoma) [µM]	TGI (A549 NSCLC) [µM]	TGI (NCI-H460 lung) [µM]	TGI (PC-3 prostate) [µM]	TGI (SF-268 CNS) [µM]	TGI (OVCAR-3 ovarian) [µM]	TGI (RXF 393 renal) [µM]	TGI (SK-MEL-2 melanoma) [µM]
COc1cccc(C=C2N=C(C)N(n3c(-c4ccccc4)nc4ccccc4c3=O)C2=O)c1	> 100	> 100	> 100	> 100	> 100	> 100	> 100			
COc1ccc(/C=C2\CN(C)CC3C2=NN(c2ccccc2)C3c2ccc(OC)cc2)cc1 (stereo not drawn)	> 100	> 100	> 100	> 100	> 100		> 100	> 100	48.2	
C=CCN1C[C@@H](C)N([C@@H](c2ccc(C(=O)N(CC)CC)cc2)c2cccc(OC)c2)C[C@@H]1C	> 100	> 100	> 100	> 100		> 100	> 100	> 100		> 100
Cc1nnc([C@@]2(C)CC[C@H]3[C@@H](CCC4=CC(=O)CC[C@@]43C)[C@@H]2CC#N)o1	> 100		> 100	> 100		> 100	> 100	> 100	> 100	> 100
CCCCS(=O)CC(CO)NC(=O)/C=C/c1c(C)[nH]c(=O)[nH]c1=O (stereo not drawn)	38.8		21.5	87.1	17.2		20.8	15	51.3	23.4
CC(C)(O)CCc1ccc(O)c2c(=O)c3c(O)c4c(cc3oc12)O[C@H]1OC=C[C@@]41O	25.3			> 100	20.7	> 35.1	8.54	< 0.01	1.44	< 0.01
NC(=O)SCC(=O)Nc1ccc2ncccc2c1	> 100		> 100	> 100	> 100	> 100	> 100	> 100		> 100
CCCCc1c2c(nc3c1CC/C(=C\c1ccc([N+](=O)[O-])cc1)C3=O)CCCC2	4.07			16.3	2.92		3.93	3.14	2.63	
Cc1ccc(S(=O)(=O)N2CCCSCCN(S(=O)(=O)c3ccc(C)cc3)CCCSCC2)cc1	> 100	> 100	> 100	> 100	> 100		> 100	> 100	> 100	> 100
COc1ccc(-c2nc3c(nc2-c2ccc(OC)cc2)N(C)S(=O)(=O)N=C3N)cc1	84.3		26.2	> 100	> 100		> 100	31	44.1	57.7
